The values that follow come from patent EP0011845A2, “Antiseborrhoeic hair treatment composition” (Henkel Kommanditgesellschaft auf Aktien, priority 1978, dated 1980).

The assay deals with Meerschweinchen. As to the kind of experiment: Anti-dandruff test: oleic-acid-induced scaling and skin thickening on shaved guinea pig back. Format: in vivo. The following applies: 5 % test substance with 5 % Ölsäure in 70 % ethanol, topical on the back, 60 min exposure, 4 consecutive days, evaluated on day 7, inhibition vs skin treated with oleic acid only; for Hautdickenmessung Hemmung %: skin fold thickness by Cutimeter nach Götze; for Hautschuppenmessung Hemmung %: visual scaling score on scale 0-4. An excerpt: Die Prüfung auf Antischuppenwirkung wurde in folgender Weise durchgeführt, wobei B) als mit Natronlauge auf einen pH-Wert von 6 neutralisiertes Produkt zum Einsatz gelangte:
Die Prüfsubstanzen wurden in 5 %iger Konzentration zusammen mit 5 % Ölsäure in 70 %igem Ethanol gelöst und in alternierender Reihenfolge und in rotierendem Schema auf den Rücken junger, geschorener weiblicher Meerschweinchen im Gewicht von 600 ± 50 g aufgetragen. Die Einwirkungszeit der Substanzen wurde dabei auf 60 Minuten begrenzt, da diese Zeit ausreichte, um eine Wirkung zu erzielen. Anschließend wurden die Tiere mit warmem Wasser 30 Sekunden lang abgeduscht. Die Reihenfolge der Tiere bei der Applikation wechselte dabei täglich, um Differenzen in der Einwirkungszeit zwischen dem ersten und letzten Tier der Gruppe auf ein Minimum zu begrenzen. Diese Behandlung geschah an vier aufeinanderfolgenden Tagen, darauf folgte eine Ruhezeit (Entwicklungszeit von drei Tagen). Am siebenten Tag wurde ausgewertet, und zwar a) kutimetrisch auf Hautfaltendicke instrumentell mit dem Cutimeter nach Götze und b) visuell auf Schuppenbildung bzw. Hemmung nach einer 4-Punkte-Skala folgender Definition: • 0 = keine Schuppen • 1 = leichte Schuppen • 2 = kräftige Schuppen • 3 = starke Schuppen mit Rötung • 4 = Krusten mit Aufrichten der Haare.
Die Versuchsgruppen bestanden aus jeweils 6 Tieren. Die Kollektive wurden mathematisch auf Homogenität geprüft und nach Eliminierung signifikant abweichender Tiere wurden Mittelwert und Streuung für jede Substanz berechnet. Diese wurden in Beziehung gesetzt zu den Werten der nur mit 5 % Ölsäure in 70 %igem Ethanol behandelten Haut und daraus die Signifikanz der Hemmwirkung bestimmt. Das Ergebnis der Prüfung ist der nachstehenden Tabelle 1 zu entnehmen.

Regarding `CCOC(=O)CCCCCNC(=O)c1cc(OC)c(OC)c(OC)c1` [Wirkstoff A, N-(3,4,5-Trimethoxy-benzoyl)-6-amino-capronsäure-ethylester], the “Hautdickenmessung Hemmung %” value turned out to be 15% and the “Hautschuppenmessung Hemmung %” value was 100%.

On to `COc1cc(C(=O)NCCCCCC(=O)O)cc(OC)c1OC` [Wirkstoff B, N-(3,4,5-Trimethoxy-benzoyl)-6-amino-carbonsäure], for which the “Hautdickenmessung Hemmung %” value is 10% and the “Hautschuppenmessung Hemmung %” value is reported as 50%.
